In patent US20150111860A1, “SUSPOEMULSION” (SUMITOMO CHEMICAL COMPANY, LIMITED, priority 2012, published 2015):
Read-outs that look alike come from different tables or passages of the source.

Test: Solubility of ingredient (2) in 100 g of the oil phase (ingredient (1)) at 25° C. by HPLC
Assay type: physicochemical
Method: The solubility can be determined in the following manner. That is, an ingredient (2) is added to an ingredient (1), followed by mixing with stirring. After being left to stand in a constant temperature water bath at 25° C., the supernatant containing the ingredient (2) in a saturated state is isolated and filtered to obtain a solution, and then a prescribed amount of an internal standard fluid is added to prepare a sample liquid for analysis. Using the sample liquid for analysis, high-performance liquid chromatography is performed, thus enabling the measurement of the solubility.

[1] = oil phase composed of pyridalyl and Exxsol D110, 25° C.

SMILES | solubility in 100 g of the oil phase [g] | solubility in 100 g of the oil phase (oil phase composed of esfenvalerate and Solvesso 150, 25° C.) [g] | solubility in 100 g of the oil phase [1] [g] | solubility in 100 g of the oil phase (oil phase composed of tolclofos-methyl and Solvesso 150, 25° C.) [g]
CCNc1nc(CC)c(C(=O)NC(C#N)c2cccs2)s1 (stereo not drawn) [ethaboxam] | 0.003 |  |  | 
CN/C(=N\[N+](=O)[O-])NCc1cnc(Cl)s1 [clothianidin] |  | 0.003 | 0.009 | 0.002
Cc1nn(C)c(Cl)c1C(=O)Nc1cccc2c1C(C)OC2(C)C (stereo not drawn) [furametpyr] | 0.394 |  |  | 
N#Cc1ccccc1NC(=O)c1snc(Cl)c1Cl [isotianil] |  |  | 0.020 | 
